Measured values: patent publication US8993606B2, “Oral formulations for treating metal overload” (FerroKin BioSciences, Inc., priority 2011, dated 2015)
Read-outs that look alike come from different tables or passages of the source.

Test: Example 4: seven-day dosing in iron-overloaded human subjects (PK, tolerability)
Assay type: in vivo
Details: for CL renal / half-life / Cmax / Tmax / AUC(0-t) / Vd/F: human; for CL renal: plasma and urine; for half-life / Cmax / Tmax / AUC(0-t) / Vd/F: plasma; for AUC(0-t): read-out: AUC(0-24); for Vd/F: read-out: Vz/F
Description: A dose-escalation study to assess the safety, tolerability, pharmacokinetics and pharmacodynamics of Compound 1, which correspond to a capsule formulation of (S)-3′-(OH)-DADFT-PE was conducted in 16 adult patients with iron overloaded consequent to transfusions. […] Compound 1 was supplied as capsules containing 50 mg, 100 mg, or 250 mg. The capsules were manufactured in accordance with Annex 13 and the principle of cGMP at Aptuit (10245 Hickman Mills Drive, Kansas City, Mo. 64137).
Patients 18 years or older with documented transfusional iron overload requiring chronic treatment with deferiprone, deferasirox or deferoxamine were eligible. Causes of iron overload included β-thalassemia major, α-thalassemia or α-thalassemia hydrops)(α°α°, sickle cell disease, and congenital dyserythropoietic anemia. Each of the four cohorts contained four patients. For the purposes of this study, transfusion dependence was defined as requiring eight or more transfusions per year. The iron burden inclusion criteria were defined as: (i) liver iron concentration greater than 2 mg/g (dry weight, liver) as determined by R2 magnetic resonance imaging; (ii) a cardiac magnetic resonance imaging T2* greater than 12 ms; and (iii) serum ferritin in excess of 600 ng/mL. Eligible patients who consented to participation in the study discontinued their regular chelation therapy for up to 5 days during a wash-out period prior to their first dose of Compound 1. Patients received Compound 1 in capsules taken orally in a fasted state.
In this study, a standard pharmacokinetic protocol of plasma sampling was performed throughout the 7 days of dosing and continuing for 3 days after the last dose on day 7. Actual blood sampling and urine collection times were used in all pharmacokinetic analyses. […] A formally validated bioanalytical method for quantifying total Compound 1 in human plasma and urine was developed. The drug was extracted from plasma using solid phase extraction and analyzed using high performance liquid chromatography with tandem mass spectrometric determination, and d3-[Compound 1] as an internal standard. The method was used to measure drug (MW 400) over the range of 5 to 2000 ng/mL (12.5-5000 nM) and at sample dilutions of 20- to 50-fold.
Pharmacokinetic parameters for Compound 1 were estimated using non-compartmental analysis. Only plasma and urine concentrations greater than the lower limits of quantitation (LOQ, 5 ng/mL in plasma, 5 ng/mL in urine) for the assays were used in the pharmacokinetic analysis.
Plasma concentrations, blood sampling times, urine concentrations, urine volumes, and the amount excreted in each interval, and pharmacokinetic parameters were listed by dose group and patient. Plasma concentrations and pharmacokinetic parameters were summarized by dose group using descriptive statistics: linearity with respect to Cmax and AUC(0-24) was assessed using the power model, i.e. P=a×Doseb, where P represents the parameter and a and b are constants. A log-log plot of P versus Dose is linear and a value of b of ≈1 indicates linearity. The equation was fitted to the individual patients' data using non-linear least squares regression. Parameters were compared among doses using descriptive statistics. Due to the small numbers of patients per panel, no formal statistical analyses were done.

Structure (SMILES): COCCOCCOCCOc1cccc(C2=N[C@@](C)(C(=O)O)CS2)c1O [Compound 1, (S)-4,5-Dihydro-2-[2-hydroxy-3-(3,6,9-trioxadecyloxy)phenyl]-4-methyl-4-thiazolecarboxylate magnesium hydroxide]
- CL/F (3 mg/kg daily 7 days oral): 162 ± 85 mL/min
- CL/F (8 mg/kg daily 7 days oral): 225 ± 142 mL/min
- CL/F (16 mg/kg daily 7 days oral): 206 ± 78.4 mL/min
- CL/F (32 mg/kg daily 7 days oral): 172 ± 60.1 mL/min
- serious adverse events associated with the drug (3-32 mg/kg daily 7 days): no serious adverse events
- dose proportionality of plasma concentrations (all four doses 3-32 mg/kg): dose-proportional, linear pharmacokinetics
- tolerability (daily for 7 days at doses up to 32 mg/kg): well tolerated at all dose levels
- CL renal (3 mg/kg daily 7 days oral): 75.2 ± 46.8 mL/min
- CL renal (8 mg/kg daily 7 days oral): 105 ± 62.9 mL/min
- CL renal (16 mg/kg daily 7 days oral): 83.2 ± 36.5 mL/min
- CL renal (32 mg/kg daily 7 days oral): 73.6 ± 37.8 mL/min
- half-life (oral, 40 mg/kg, 5th cohort of four patients, read-out: Mean half life (t½) (converted)): 1600 min
- half-life (oral, across doses 3-32 mg/kg, read-out: t½ (converted)): 1150 min
- Cmax (3 mg/kg daily 7 days oral): 5910 ± 2300 ng/mL
- Tmax (3 mg/kg daily 7 days oral): 1.31 h
- AUC(0-t) (3 mg/kg daily 7 days oral): 19500 ± 11300 ng·h/mL
- Vd/F (3 mg/kg daily 7 days oral): 185 ± 84.1 L
- half-life (3 mg/kg daily 7 days oral, read-out: t½ (converted)): 972 ± 499 min
- Cmax (8 mg/kg daily 7 days oral): 15000 ± 4440 ng/mL
- Tmax (8 mg/kg daily 7 days oral): 1.18 h
- AUC(0-t) (8 mg/kg daily 7 days oral): 44900 ± 30800 ng·h/mL
- Vd/F (8 mg/kg daily 7 days oral): 311 ± 137 L
- half-life (8 mg/kg daily 7 days oral, read-out: t½ (converted)): 1250 ± 678 min
- Cmax (16 mg/kg daily 7 days oral): 38200 ng/mL
- Tmax (16 mg/kg daily 7 days oral): 1 h
- AUC(0-t) (16 mg/kg daily 7 days oral): 92300 ± 36600 ng·h/mL
- Vd/F (16 mg/kg daily 7 days oral): 339 ± 166 L
- half-life (16 mg/kg daily 7 days oral, read-out: t½ (converted)): 1280 ± 708 min
- Cmax (32 mg/kg daily 7 days oral): 60200 ± 27500 ng/mL
- Tmax (32 mg/kg daily 7 days oral): 1.49 h
- AUC(0-t) (32 mg/kg daily 7 days oral): 158000 ± 43500 ng·h/mL
- Vd/F (32 mg/kg daily 7 days oral): 214 ± 2.94 L
- half-life (32 mg/kg daily 7 days oral, read-out: t½ (converted)): 1120 ± 269 min
